Experimental data published in patent publication US8058313B2, “Alpha, beta-unsaturated sulfones, sulfoxides, sulfonimides, sulfinimides, acylsulfonamides and acylsulfinamides and therapeutic uses thereof” (Temple University—Of The Commonwealth System of Higher …, priority 2004, dated 2011).

What was measured:
[1] = target: recombinant FLT1 active protein (Homo sapiens, UniProt P17948); test: In vitro filter assay for FLT1 kinase activity; assay type: biochemical; conditions: 30 min preincubation at room temperature, kinase reaction 20 min at 30° C., 100 μM ATP, 250 μM IGF-1Rtide, triplicate
Method: The inhibition of FLT1 by compounds according to Formula I was assessed by employing an in vitro filter assay for FLT1.
Compounds 1-15 were prepared as 10 mmol stock solutions in DMSO. Curcumin was also prepared as a 10 mmol stock solution for testing in the FLT1 assay. Five units of recombinant FLT1 active protein was incubated with different concentrations of each compound in a 15 μl reaction mixture (50 mM HEPES, 10 mM MgCl2, 1 mM EDTA, 2 mM Dithiothreitol 0.01% NP-40 pH 7.5) for 30 minutes at room temperature (25° C). Kinase reactions were performed for 20 minutes at 30° C. in a volume of 20 μl (15 μl enzyme+compound of Formula I, 2 μl 1 mM ATP (100 μM final concentration), 2 μl of γ 32^pATP (40 μci final concentration) and 250 μM of IGF-1Rtide. 10 μl aliquots of the kinase reaction were spotted onto the center of a filter (2 cm×2 cm P81 phosphocellulose paper square). After 30 seconds, the filters were washed with 0.75% phosphoric acid (3×5 minutes) and once with acetone (5 minutes). The wet filters were transferred into a scintillation vial containing scintillation cocktail ^32P (5 mL). Radioactivity was determined using a scintillation counter. Control analyses were performed with DMSO stock solutions containing no compound. Binding values were corrected for non-specific binding by performing duplicate assays in the absence of FLT1 enzyme and subtracting the non-specific binding values from the values obtained in the presence of FLT1. Counts per minute (CPM) of aliquots containing a compound of Formula I were compared with CPM of control samples. The kinase activity is expressed in percent of the maximal kinase activity. […] All assays were carried out in triplicate.

[2] = system: androgen receptor negative prostate (DU145) cell line; test: Effect on growth of human tumor cells in culture (viable cells, Trypan blue exclusion); assay type: cell-based; conditions: five concentrations (1-100 μM range), read from dose response curve
Method: The effect of compounds according to Formula I on the growth of human tumor cells in culture was evaluated using the androgen receptor negative prostate (DU145) cell line. The cell culture was maintained at 37° C. in a humidified atmosphere of 5% CO2.
Cells were treated with compounds according to Formula I at five different concentrations (1-100 μM range) for each compound. For comparison, the cells were treated with curcumin at the same concentrations. The dose response was established by determining the number of viable cells after 96 h of continuous treatment against each of the different test concentrations of each compound. The determination of viable cells was done by the Trypan blue exclusion method. Activity for each compound at each concentration is reported as a percentage of cells that remain viable.
The GI50 values were determined by direct extrapolation from each dose response curve.

[3] = Homo sapiens, DU-145, 96 h continuous treatment

recombinant FLT1 active protein, sequence (P17948 27-1338): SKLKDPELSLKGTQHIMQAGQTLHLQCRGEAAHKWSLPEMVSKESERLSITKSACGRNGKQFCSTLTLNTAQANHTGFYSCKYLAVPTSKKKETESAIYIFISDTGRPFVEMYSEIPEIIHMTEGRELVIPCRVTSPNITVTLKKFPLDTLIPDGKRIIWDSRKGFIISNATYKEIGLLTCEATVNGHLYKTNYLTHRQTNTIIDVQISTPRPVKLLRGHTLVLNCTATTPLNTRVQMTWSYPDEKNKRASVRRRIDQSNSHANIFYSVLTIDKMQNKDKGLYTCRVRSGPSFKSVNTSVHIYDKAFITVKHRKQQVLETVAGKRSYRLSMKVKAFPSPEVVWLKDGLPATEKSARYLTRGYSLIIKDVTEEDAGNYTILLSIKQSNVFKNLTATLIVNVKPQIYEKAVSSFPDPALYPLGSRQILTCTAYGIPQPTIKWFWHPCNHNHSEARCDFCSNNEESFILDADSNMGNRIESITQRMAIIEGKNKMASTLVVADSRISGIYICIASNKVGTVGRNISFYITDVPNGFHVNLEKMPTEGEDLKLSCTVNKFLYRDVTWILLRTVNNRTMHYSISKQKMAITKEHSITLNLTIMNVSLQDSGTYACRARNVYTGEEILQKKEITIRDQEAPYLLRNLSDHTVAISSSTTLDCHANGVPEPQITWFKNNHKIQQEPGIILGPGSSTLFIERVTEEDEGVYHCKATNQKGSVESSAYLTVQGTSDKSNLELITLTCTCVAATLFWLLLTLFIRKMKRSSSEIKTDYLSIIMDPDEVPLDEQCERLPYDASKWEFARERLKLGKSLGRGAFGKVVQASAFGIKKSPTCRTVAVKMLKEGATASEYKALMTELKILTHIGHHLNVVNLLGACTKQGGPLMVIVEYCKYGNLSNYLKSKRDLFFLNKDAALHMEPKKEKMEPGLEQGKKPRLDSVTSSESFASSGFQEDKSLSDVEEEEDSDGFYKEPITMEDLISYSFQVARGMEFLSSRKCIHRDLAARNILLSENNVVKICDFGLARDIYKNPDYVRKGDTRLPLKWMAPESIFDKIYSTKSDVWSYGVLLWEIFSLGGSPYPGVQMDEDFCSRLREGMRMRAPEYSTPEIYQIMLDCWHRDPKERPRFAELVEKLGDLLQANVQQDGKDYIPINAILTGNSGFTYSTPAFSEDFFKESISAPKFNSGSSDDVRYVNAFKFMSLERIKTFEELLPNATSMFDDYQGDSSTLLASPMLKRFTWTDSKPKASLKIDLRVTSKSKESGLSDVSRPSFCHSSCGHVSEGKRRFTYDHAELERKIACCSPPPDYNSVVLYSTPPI

Row | IC50 [1] | GI50 [2, 3] | Compound | GI50 ([2]; 96 h continuous treatment)
1 | > 100 µM | 10 to 25 µM | O=S(=O)(/C=C/c1ccccc1)CS(=O)(=O)/C=C/c1ccccc1 [Example 9, bis((E)-Styrylsulfonyl)methane] | –
2 | > 10 µM | – | O=S(=O)(/C=C/c1ccc(I)cc1)CS(=O)(=O)/C=C/c1ccc(I)cc1 [Example 10, bis((E)-4-Iodostyrylsulfonyl)methane] | –
3 | > 100 µM | < 10 µM | O=S(=O)(/C=C/c1ccc(F)cc1)CS(=O)(=O)/C=C/c1ccc(F)cc1 [Example 11, bis((E)-4-Fluorostyrylsulfonyl)methane] | –
4 | > 10 µM | 7.5 µM | COc1cc(/C=C/S(=O)(=O)CS(=O)(=O)/C=C/c2cc(OC)c(OC)c(OC)c2)cc(OC)c1OC [Example 14, bis((E)-3,4,5-Trimethoxystyrylsulfonyl)methane] | –
5 | 35 µM | 35 µM | COc1cc(/C=C/C(=O)CC(=O)/C=C/c2ccc(O)c(OC)c2)ccc1O [curcumin, reference compound] | –

More lines, now with the values behind:

Row | Compound | IC50 [1] | GI50 [2, 3] | GI50 ([2]; 96 h continuous treatment)
6 | 4-((1E)-2-(((E)-4-hydroxy-2,6-dimethoxystyrylsulfonyl)methylsulfonyl)vinyl)-3,5-dimethoxyphenol. [Example 15] | 0.077 µM | – | < 1 µM
7 | COc1cc(/C=C/S(=O)(=O)CS(=O)(=O)/C=C/c2ccc(O)c(OC)c2)ccc1O [Example 1, 4-((1E)-2-(((E)-4-Hydroxy-3-methoxystyrylsulfonyl)methylsulfonyl)vinyl)-2-methoxyphenol] | 3.89 µM | < 10 µM | –
8 | COc1cc(OC)c(/C=C/S(=O)(=O)CS(=O)(=O)/C=C/c2c(OC)cc(OC)cc2OC)c(OC)c1 [Example 2, bis((E)-2,4,6-Trimethoxystyrylsulfonyl)methane] | 0.281 µM | 75 µM | –
9 | N#Cc1ccc(/C=C/S(=O)(=O)CS(=O)(=O)/C=C/c2ccc(C#N)cc2F)c(F)c1 [Example 3, 4-((1E)-2-(((E)-2-Fluoro-4-cyanostyrylsulfonyl)methylsulfonyl)vinyl)-3-fluorobenzonitrile] | 0.162 µM | 25 to 50 µM | –
10 | O=S(=O)(/C=C/c1ccc(F)cc1F)CS(=O)(=O)/C=C/c1ccc(F)cc1F [Example 4, bis((E)-2,4-Difluorostyrylsulfonyl)methane] | 2.23 µM | < 10 µM | –
11 | COc1cccc(OC)c1/C=C/S(=O)(=O)CS(=O)(=O)/C=C/c1c(OC)cccc1OC [Example 5, bis((E)-2,6-Dimethoxystyrylsulfonyl)methane] | 12.8 µM | 25 to 50 µM | –
12 | O=S(=O)(/C=C/c1ccc(Cl)cc1)CS(=O)(=O)/C=C/c1ccc(Cl)cc1 [Example 6, bis((E)-4-Chlorostyrylsulfonyl)methane] | 51 µM | 10 to 25 µM | –
13 | O=S(=O)(/C=C/c1ccc(Br)cc1)CS(=O)(=O)/C=C/c1ccc(Br)cc1 [Example 7, bis((E)-4-Bromostyrylsulfonyl)methane] | 0.316 µM | < 10 µM | –
14 | O=S(=O)(/C=C/c1ccsc1)CS(=O)(=O)/C=C/c1ccsc1 [Example 8, bis((E)-2-(Thiophen-3-yl)vinylsulfonyl)methane] | 11.2 µM | < 10 µM | –
15 | bis((E)-Perfluorostyrylsulfonyl)methane [Example 13] | 0.416 µM | – | < 2.5 µM
